The results in this text go back to PMC9231348, “Bio-Oriented Synthesis of Novel (S)-Flurbiprofen Clubbed Hydrazone Schiff’s Bases for Diabetic Management: In Vitro and In Silico Studies” (Pharmaceuticals, 2022).

In one data set the target is α-Glucosidase (E.C.3.2.1.20) (Saccharomyces cerevisiae, UniProt P53341). In words: In vitro α-glucosidase inhibition assay. It is filed as biochemical.
α-Glucosidase (E.C.3.2.1.20), sequence (P53341 whole entry): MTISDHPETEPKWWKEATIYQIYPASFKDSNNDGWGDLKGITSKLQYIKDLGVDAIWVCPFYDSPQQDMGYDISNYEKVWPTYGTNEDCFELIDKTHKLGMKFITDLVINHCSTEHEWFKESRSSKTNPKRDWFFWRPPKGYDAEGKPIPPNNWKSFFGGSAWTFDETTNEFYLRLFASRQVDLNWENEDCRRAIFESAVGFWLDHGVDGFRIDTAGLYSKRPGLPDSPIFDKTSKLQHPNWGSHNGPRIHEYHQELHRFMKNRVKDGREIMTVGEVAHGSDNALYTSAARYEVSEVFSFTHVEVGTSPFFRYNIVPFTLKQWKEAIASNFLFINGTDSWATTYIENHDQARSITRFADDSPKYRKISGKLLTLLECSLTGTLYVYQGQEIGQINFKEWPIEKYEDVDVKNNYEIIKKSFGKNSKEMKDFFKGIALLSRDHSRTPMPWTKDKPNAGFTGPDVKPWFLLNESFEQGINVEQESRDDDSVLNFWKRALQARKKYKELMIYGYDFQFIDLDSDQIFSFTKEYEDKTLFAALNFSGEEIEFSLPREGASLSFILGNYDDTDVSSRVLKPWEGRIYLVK
Experimental: α-Glucosidase (E.C.3.2.1.20) enzyme inhibition assay was developed by using 0.1 M phosphate buffer (pH 6.8) at 37 °C [39, 40, 41]. The enzyme (0.2 μ/mL) was incubated in phosphate-buffered saline with different concentrations of tested compounds at 37 °C for 15 min. […] Test compounds were substituted with DMSO-d6 (7.5% final) in the control. […] The % inhibition was calculated by using the following formula:
% Inhibition = 100 − (OD test well/OD control) × 100.
With `COc1ccc(/C=N/NC(=O)C(C)c2ccc(-c3ccccc3)c(F)c2)cc1O` (centres unmarked) [Compound 4f, (E)-2-(2-Fluoro-[1, 1′-biphenyl]-4-yl)-N′-(3-hydroxy-4-methoxybenzylidene)propanehydrazide], the “α-glucosidase inhibitory activity (in words)” value is “moderate-to-low activities”.
On to `CCC/C=N/NC(=O)C(C)c1ccc(-c2ccccc2)c(F)c1` (centres unmarked) [Compound 4k, (E)-N′-Butylidene-2-(2-fluoro-[1,1′-biphenyl]-4-yl)propanehydrazide], for which the “α-glucosidase inhibitory activity (in words)” value is “moderate-to-low activities”.
The same measure, in the same setting: as for `CC(C(=O)N/N=C/c1cccc2ccccc12)c1ccc(-c2ccccc2)c(F)c1` (centres unmarked) [Compound 4n, (E)-2-(2-Fluoro-[1,1′-biphenyl]-4-yl)-N′-(naphthalen-1-ylmethylene)propanehydrazide], the entry is “moderate-to-low activities”; as for `C/C(=N\NC(=O)C(C)c1ccc(-c2ccccc2)c(F)c1)c1ccccc1` (centres unmarked) [Compound 5f, (E)-2-(2-Fluoro-[1,1′-biphenyl]-4-yl)-N′-(1-phenylethylidene)propanehydrazide], “moderate-to-low activities”; as for `CC/C(=N\NC(=O)C(C)c1ccc(-c2ccccc2)c(F)c1)c1ccccc1` (centres unmarked) [Compound 5g, (E)-2-(2-Fluoro-[1,1′-biphenyl]-4-yl)-N′-(1-phenylpropylidene)propanehydrazide], “moderate-to-low activities”.

System in the next data set: not given
Assay: not given
`COc1cc(/C=N/NC(=O)C(C)c2ccc(-c3ccccc3)c(F)c2)cc(OC)c1OC` (centres unmarked) [Compound 4a, (E)-2-(2-Fluoro-[1,1′-biphenyl]-4-yl)-N′-(3,4,5-trimethoxybenzylidene)propanehydrazide] displayed a melting point of 139 to 140 °C.
The same measure, in the same setting: as for `CC(C(=O)N/N=C/c1cccc([N+](=O)[O-])c1)c1ccc(-c2ccccc2)c(F)c1` (centres unmarked) [Compound 4b, (E)-2-(2-Fluoro-[1,1′-biphenyl]-4-yl)-N′-(3-nitrobenzylidene)propanehydrazide], the figure is 145 to 147 °C; as for `CC(C(=O)N/N=C/c1ccc(O)cc1O)c1ccc(-c2ccccc2)c(F)c1` (centres unmarked) [Compound 4c, (E)-N′-(2,4-Dihydroxybenzylidene)-2-(2-fluoro-[1,1′-biphenyl]-4-yl)propanehydrazide], 133 to 135 °C; as for `COc1cccc(/C=N/NC(=O)C(C)c2ccc(-c3ccccc3)c(F)c2)c1O` (centres unmarked) [Compound 4d, (E)-2-(2-Fluoro-[1,1′-biphenyl]-4-yl)-N′-(2-hydroxy-3-methoxybenzylidene)propanehydrazide], 154 to 155 °C.
Still for that read-out and setting: then `CCN(CC)c1ccc(/C=N/NC(=O)C(C)c2ccc(-c3ccccc3)c(F)c2)cc1` (centres unmarked) [Compound 4e, (E)-N′-(4-(Diethylamino)benzylidene)-2-(2-fluoro-[1,1′-biphenyl]-4-yl)propanehydrazide], with 144 to 145 °C; and `COc1ccc(/C=N/NC(=O)C(C)c2ccc(-c3ccccc3)c(F)c2)cc1O` (centres unmarked) [Compound 4f, (E)-2-(2-Fluoro-[1, 1′-biphenyl]-4-yl)-N′-(3-hydroxy-4-methoxybenzylidene)propanehydrazide], with 126 to 127 °C.
Compound `CC(C(=O)N/N=C/c1ccc(Br)cc1F)c1ccc(-c2ccccc2)c(F)c1` (centres unmarked) [Compound 4g, (E)-N′-(4-Bromo-2-fluorobenzylidene)-2-(2-fluoro-[1,1′-biphenyl]-4-yl)propanehydrazide] yielded a melting point of 166 to 168 °C.
`CC(C(=O)N/N=C/c1cccc(Br)c1)c1ccc(-c2ccccc2)c(F)c1` (centres unmarked) [Compound 4h, (E)-N′-(3-Bromobenzylidene)-2-(2-fluoro-[1,1′-biphenyl]-4-yl)propanehydrazide]: the melting point lay within 147 to 148 °C.
The same measure, in the same setting: then `CC(C(=O)NN=Cc1cc(Br)c(O)c(Br)c1)c1ccc(-c2ccccc2)c(F)c1` (centres unmarked) [Compound 4i, (E)-N′-(3,5-Dibromo-4-hydroxybenzylidene)-2-(2-fluoro-[1,1′-biphenyl]-4-yl)propane hydrazide], with 161 to 162 °C; and `CCOc1cc(/C=N/NC(=O)C(C)c2ccc(-c3ccccc3)c(F)c2)ccc1O` (centres unmarked) [Compound 4j, (E)-N′-(3-Ethoxy-4-hydroxybenzylidene)-2-(2-fluoro-[1,1′-biphenyl]-4-yl)propanehydrazide], with 173 to 174 °C.
The same measure, in the same setting: as for `CCC/C=N/NC(=O)C(C)c1ccc(-c2ccccc2)c(F)c1` (centres unmarked) [Compound 4k, (E)-N′-Butylidene-2-(2-fluoro-[1,1′-biphenyl]-4-yl)propanehydrazide], the figure is 168 to 169 °C; as for `CCCCC/C=N/NC(=O)C(C)c1ccc(-c2ccccc2)c(F)c1` (centres unmarked) [Compound 4l, (E)-2-(2-Fluoro-[1, 1′-biphenyl]-4-yl)-N′-hexylidenepropanehydrazide], 129 to 130 °C.
`COc1ccccc1/C=N/NC(=O)C(C)c1ccc(-c2ccccc2)c(F)c1` (centres unmarked) [Compound 4m, (E)-2-(2-Fluoro-[1,1′-biphenyl]-4-yl)-N′-(2-methoxybenzylidene)propanehydrazide] yielded a melting point of 131 to 132 °C.
The same measure, in the same setting: as for `CC(C(=O)N/N=C/c1cccc2ccccc12)c1ccc(-c2ccccc2)c(F)c1` (centres unmarked) [Compound 4n, (E)-2-(2-Fluoro-[1,1′-biphenyl]-4-yl)-N′-(naphthalen-1-ylmethylene)propanehydrazide], the figure is 168 to 170 °C; as for `CC(C(=O)N/N=C/c1ccc(C(=O)O)cc1)c1ccc(-c2ccccc2)c(F)c1` (centres unmarked) [Compound 4p, (E)-4-((2-(2-(2-Fluoro-[1,1′-biphenyl]-4-yl)propanoyl)hydrazono)methyl)benzoic acid], 176 to 177 °C.
On the same count and under the same terms, then `C/C(=N\NC(=O)C(C)c1ccc(-c2ccccc2)c(F)c1)c1ccc(O)cc1` (centres unmarked) [Compound 5a, (E)-2-(2-Fluoro-[1,1′-biphenyl]-4-yl)-N′-(1-(4-hydroxyphenyl)ethylidene)propanehydrazide], with 152 °C; and `C/C(=N\NC(=O)C(C)c1ccc(-c2ccccc2)c(F)c1)c1ccc([N+](=O)[O-])cc1` (centres unmarked) [Compound 5b, (E)-2-(2-Fluoro-[1,1′-biphenyl]-4-yl)-N′-(1-(4-nitrophenyl)ethylidene)propanehydrazide], with 175 °C; and `COc1ccc2c(c1)CCC/C2=N\NC(=O)C(C)c1ccc(-c2ccccc2)c(F)c1` (centres unmarked) [Compound 5c, (E)-2-(2-Fluoro-[1,1′-biphenyl]-4-yl)-N′-(6-methoxy-3,4-dihydronaphthalen-1(2H) -ylidene)propanehydrazide], with 187 °C.
The same measure, in the same setting: then `C/C(=N\NC(=O)C(C)c1ccc(-c2ccccc2)c(F)c1)c1ccccc1` (centres unmarked) [Compound 5f, (E)-2-(2-Fluoro-[1,1′-biphenyl]-4-yl)-N′-(1-phenylethylidene)propanehydrazide], with 181 °C.
With `CC/C(=N\NC(=O)C(C)c1ccc(-c2ccccc2)c(F)c1)c1ccccc1` (centres unmarked) [Compound 5g, (E)-2-(2-Fluoro-[1,1′-biphenyl]-4-yl)-N′-(1-phenylpropylidene)propanehydrazide], the melting point was 179 °C.
Still for that read-out and setting: as for `CC(C)/C(=N\NC(=O)C(C)c1ccc(-c2ccccc2)c(F)c1)c1ccccc1` (centres unmarked) [Compound 5h, (E)-2-(2-Fluoro-[1,1′-biphenyl]-4-yl)-N′-(2-methyl-1-phenylpropylidene)propanehydrazide], the figure is 177 °C; as for `CCCC/C(=N\NC(=O)C(C)c1ccc(-c2ccccc2)c(F)c1)c1ccccc1` (centres unmarked) [Compound 5i, (E)-2-(2-Fluoro-[1,1′-biphenyl]-4-yl)-N′-(1-phenylpentylidene)propanehydrazide], 165 °C.
The same measure, in the same setting: then `C/C(=N\NC(=O)C(C)c1ccc(-c2ccccc2)c(F)c1)C1CC1` (centres unmarked) [Compound 5j, (E)-N′-(1-Cyclopropylethylidene)-2-(2-fluoro-[1,1′-biphenyl]-4-yl)propanehydrazide], with 160 °C; and `CCC/C(=N\NC(=O)C(C)c1ccc(-c2ccccc2)c(F)c1)c1ccccc1` (centres unmarked) [Compound 5k, (E)-2-(2-Fluoro-[1,1′-biphenyl]-4-yl)-N′-(1-phenylbutylidene)propanehydrazide], with 183 °C.
On the same count and under the same terms, as for `CC(C(=O)NN=C1CCCCC1)c1ccc(-c2ccccc2)c(F)c1` (centres unmarked) [Compound 5l, N′-Cyclohexylidene-2-(2-fluoro-[1,1′-biphenyl]-4-yl)propanehydrazide], the figure is 177 °C; as for `COc1ccccc1/C(C)=N/NC(=O)C(C)c1ccc(-c2ccccc2)c(F)c1` (centres unmarked) [Compound 5m, (E)-2-(2-Fluoro-[1,1′-biphenyl]-4-yl)-N′-(1-(2-methoxyphenyl)ethylidene)propanehydrazide], 198 °C; as for `COc1ccc(/C(C)=N/NC(=O)C(C)c2ccc(-c3ccccc3)c(F)c2)cc1` (centres unmarked) [Compound 5n, (E)-2-(2-Fluoro-[1,1′-biphenyl]-4-yl)-N′-(1-(4-methoxyphenyl)ethylidene)propanehydrazide], 192 °C.

One may read the melting point as the temperature, or range, at which the solid turns liquid.
